Assays:
PIK3CA = target: T1, PIK3CA (Homo sapiens, UniProt P42336); assay: In vitro ELISA target engagement assay for PIK3CA in Jurkat cellular lysate (competition with PIK3CA Biotin Probe); type: binding; details: 1 hour at rt, then 500 nM PIK3CA Biotin Probe, read-out: Elisa Target Engagement Assay (TE50)
T1 construct: endogenous in cells; host or cells: Jurkat cell lysate
How it was run: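 Competition format in Jurkat lysate: compound (serial dilutions, top 200 μM) for 1 h at rt, then 500 nM final biotinylated PIK3CA probe for 1 h at rt. Sandwich ELISA with capture antibody and Neutravidin-HRP luminescence read-out measured probe-labelled PIK3CA, giving TE50.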

[1] = test system: pAKT(S473) in H358 cell line; assay: In vitro Phospho-AKT(S473) HTRF analysis in H358 cells; type: cell-based; details: Homo sapiens, NCI-H358, 0.5 h; for IC50: H358 cells, 30 minutes at 37° C.; for Emax: read-out: H358 pAKT Imax % control
Experimental: Example 5. In Vitro Phosgho-AKT(S473) Analysis
Functional activity of the compounds to inhibit pAKT were assessed in FaDu or H358 cell lines as indicated below.
• Complete Media • FBS, Corning catalog #35-010-CV • Anti-Anti, Gibco catalog #15240-062 • 96 well plate, Corning catalog #3610 • TrypLE, Gibco catalog #12604013 • Phospho-AKT(S473) HTRF kit, Cisbio catalog #64AKSPET
Cells were detached from the tissue culture flask with TrypLE. The cells were pelleted at 500×g for 5 min, TrypLe was removed and then resuspended in the necessary volume of media+1% FBS to give the appropriate cell density (17,500 cells/mL for FaDu; 20,000 cells/mL for H358). 100 μL of cell suspension/well was dispensed into the 96-well plate while keeping the outer wells of the plate free of cells and filled with PBS to prevent evaporation of interior wells. The plate was incubated at 37° C. and allowed to adhere overnight. The cells were treated with a dose response of compound and incubated at 37° C. for 30 minutes. The cells were then processed and pAKT(S473) levels were assessed following the specifications of the Cisbio HTRF kit.

[2] = test system: pAKT(S473) in FaDu cell line; assay: In vitro Phospho-AKT(S473) HTRF analysis in FaDu cells; type: cell-based; details: Homo sapiens, 0.5 h; for IC50: FaDu cells, 30 minutes at 37° C.; for Emax: FaDu, read-out: FaDu pAKT Imax % control
How it was run: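 FaDu or H358 cells were plated overnight in medium with 1% FBS, then exposed to a compound dose response for 30 minutes at 37° C. Phospho-AKT(S473) levels were measured by HTRF.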

T1 sequence (P42336 whole entry): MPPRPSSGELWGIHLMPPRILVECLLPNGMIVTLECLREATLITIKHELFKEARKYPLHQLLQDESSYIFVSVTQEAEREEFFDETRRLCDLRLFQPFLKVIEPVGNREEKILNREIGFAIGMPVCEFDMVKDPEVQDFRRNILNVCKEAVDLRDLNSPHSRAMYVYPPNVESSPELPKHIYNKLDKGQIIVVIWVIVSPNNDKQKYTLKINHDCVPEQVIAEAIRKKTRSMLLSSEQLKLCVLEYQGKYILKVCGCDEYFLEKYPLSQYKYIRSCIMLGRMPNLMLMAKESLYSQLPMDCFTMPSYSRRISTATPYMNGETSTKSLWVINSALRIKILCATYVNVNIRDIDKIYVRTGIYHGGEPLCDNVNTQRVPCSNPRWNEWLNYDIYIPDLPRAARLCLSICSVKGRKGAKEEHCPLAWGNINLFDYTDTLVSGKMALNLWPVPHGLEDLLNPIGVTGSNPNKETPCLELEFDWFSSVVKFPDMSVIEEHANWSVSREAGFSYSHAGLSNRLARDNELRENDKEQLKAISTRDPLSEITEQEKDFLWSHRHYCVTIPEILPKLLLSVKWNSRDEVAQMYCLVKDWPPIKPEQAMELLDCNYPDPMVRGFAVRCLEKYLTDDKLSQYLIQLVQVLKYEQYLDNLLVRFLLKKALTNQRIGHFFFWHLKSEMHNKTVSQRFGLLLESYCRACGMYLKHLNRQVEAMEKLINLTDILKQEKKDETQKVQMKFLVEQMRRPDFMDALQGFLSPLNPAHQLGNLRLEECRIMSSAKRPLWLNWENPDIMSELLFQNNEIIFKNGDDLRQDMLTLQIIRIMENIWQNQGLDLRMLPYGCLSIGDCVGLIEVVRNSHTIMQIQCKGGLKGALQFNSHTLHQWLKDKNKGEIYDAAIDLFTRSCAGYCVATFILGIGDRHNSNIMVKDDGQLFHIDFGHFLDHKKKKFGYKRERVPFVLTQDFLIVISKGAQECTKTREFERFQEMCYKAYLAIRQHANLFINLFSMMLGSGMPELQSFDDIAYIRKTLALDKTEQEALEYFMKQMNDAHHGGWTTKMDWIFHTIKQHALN
T1 sequence (P27986 whole entry partner): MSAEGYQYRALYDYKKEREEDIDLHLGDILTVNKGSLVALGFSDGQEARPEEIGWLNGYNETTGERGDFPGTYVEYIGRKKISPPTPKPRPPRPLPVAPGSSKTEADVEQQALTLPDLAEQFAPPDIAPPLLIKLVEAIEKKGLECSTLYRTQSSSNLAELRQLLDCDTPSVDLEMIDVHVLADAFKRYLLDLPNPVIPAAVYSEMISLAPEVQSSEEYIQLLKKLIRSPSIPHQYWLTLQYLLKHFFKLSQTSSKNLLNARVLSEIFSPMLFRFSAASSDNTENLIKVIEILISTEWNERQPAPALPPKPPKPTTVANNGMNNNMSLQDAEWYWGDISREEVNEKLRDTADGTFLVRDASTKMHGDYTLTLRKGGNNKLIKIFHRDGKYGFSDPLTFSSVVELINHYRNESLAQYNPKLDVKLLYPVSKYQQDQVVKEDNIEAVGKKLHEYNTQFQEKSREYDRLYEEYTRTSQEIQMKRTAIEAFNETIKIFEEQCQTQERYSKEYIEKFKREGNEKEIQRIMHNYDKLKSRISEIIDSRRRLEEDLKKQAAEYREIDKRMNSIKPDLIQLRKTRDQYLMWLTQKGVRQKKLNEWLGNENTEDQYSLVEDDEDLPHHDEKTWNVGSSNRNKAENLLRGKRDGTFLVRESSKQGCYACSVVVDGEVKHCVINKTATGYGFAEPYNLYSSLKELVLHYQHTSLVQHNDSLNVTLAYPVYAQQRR

IC50 (PIK3CA) [nM] | IC50 [1] [nM] | IC50 [2] [nM] | Structure (SMILES) | Emax [1] [%] | Emax [2] [%]
850 | 408 | 580 | C[C@H](/C=C\S(C)(=O)=O)NC(=O)[C@@]1(F)CCCN(C(=O)[C@H]2CN(CC(F)(F)F)CC[C@@H]2c2ccccc2Cl)CC1 (single isomer, unassigned) [Compound 308, (R)-1-((3*R,4*S)-4-(2-chlorophenyl)-1-(2,2,2-trifluoroethyl)piperidine-3-carbonyl)-4-fluoro-N-((R,Z)-4-(methylsulfonyl)but-3-en-2-yl) azepane-4-carboxamide] | 91 | 93.4
53.7 | 81.6 | 88.2 | C[C@@H](/C=C\S(C)(=O)=O)NC(=O)C1(F)CCN(S(=O)(=O)c2cnc(C(F)(F)F)cc2-c2ccccc2Cl)CC1 [Compound 208, (S,Z)-1-((4-(2-chlorophenyl)-6-(trifluoromethyl)pyridin-3-yl)sulfonyl)-4-fluoro-N-(4-(methylsulfonyl)but-3-en-2-yl)piperidine-4-carboxamide] | 95.9 | –
440 | 464 | 696 | C[C@H](/C=C\S(C)(=O)=O)NC(=O)[C@]1(F)CCN(C(=O)[C@H]2CN(CC(F)(F)F)C[C@H]2c2ccccc2Cl)[C@@H](C)C1 (single isomer, unassigned) [Compound 302, (2*S,4*S)-1-((3R,4R)-4-(2-chlorophenyl)-1-(2,2,2-trifluoroethyl)pyrrolidine-3-carbonyl)-4-fluoro-2-methyl-N-((R,Z)-4-(methylsulfonyl)but-3-en-2-yl)piperidine-4-carboxamide] | 87.2 | 101
310 | 263 | 334 | C[C@H](/C=C\S(C)(=O)=O)NC(=O)[C@@]1(F)CCCN(C(=O)[C@@H]2CCN(CC(F)(F)F)C[C@H]2c2ccccc2Cl)CC1 (single isomer, unassigned) [Compound 306, (R)-1-((3*R,4*R)-3-(2-chlorophenyl)-1-(2,2,2-trifluoroethyl)piperidine-4-carbonyl)-4-fluoro-N-((R,Z)-4-(methylsulfonyl)but-3-en-2-yl)azepane-4-carboxamide] | 88 | 93
210 | 202 | 154 | Cc1ccc([C@@H]2CN(CC(F)(F)F)C[C@@H]2C(=O)N2CCC[C@](F)(C(=O)N[C@H](C)/C=C\S(C)(=O)=O)CC2)c(Cl)c1 (single isomer, unassigned) [Compound 169, (R)-1-((3*R,4*R)-4-(2-chloro-4-methylphenyl)-1-(2,2,2-trifluoroethyl)pyrrolidine-3-carbonyl)-4-fluoro-N—((R,Z)-4-(methylsulfonyl)but-3-en-2-yl)azepane-4-carboxamide] | 106 | 108

— US20250026721A1, “COMPOUNDS AND METHODS FOR MODULATING RAS-PI3K” (Vividion Therapeutics, Inc., priority 2023, published 2025)
